The test deals with phosphorylation of EGFR, ERK1/2, and AKT. As to the kind of experiment: Immunoblot of EGFR signaling pathway in H3255 cells. In kind it is cell-based, human. Conditions: H3255, 6 h treatment. The method, then: (A) Dose–response curves for ZNL-0056 and osimertinib in H3255 cells following 72 h of treatment. Cell viability was assessed with CellTiter-Glo. Data are presented as the mean ± SEM (n = 4). Representative data from three independent experiments are shown. (B) Immunoblot assessment of the effect of ZNL-0056 on EGFR signaling pathway in H3255 cells after 6 h treatment. Representative blots from two independent experiments are shown. […] TEXT PRINTED IN THE PICTURE: (A) ZNL-0056: H3255: IC50 (nM): 471.3 | (A) Osimertinib: H3255: IC50 (nM): 27.76 […]
For infection of Ba/F3 cells, 2.5 mL of viral supernatant and 8 μg/mL polybrene was added to 2.5 million cells per well in six-well plates. The plate was centrifuged at 2500 rpm for 90 minutes at 37 °C for the spin infection. […]
Cells were lysed in RIPA buffer (150 mM NaCl, 1.0% IGEPAL® CA-630, 0.5% sodium deoxycholate, 0.1% SDS, 50 mM Tris, pH 8.0) (Sigma, Cat# R0278) with protease inhibitor and phosphatase inhibitor (Roche). The protein concentrations were measured by BCA analysis (Thermo Fisher Scientific, Cat # PI23225). […]
or IRDye 680RD goat anti-Mouse IgG (LICOR Biosciences , Cat # 926-68070) secondary antibodies at room temperature for 1 hour. The membranes were detected on Odyssey CLx system. […]

SMILES strings stand for the structures.

Consider one compound from PMC11212140, “Molecular Bidents with Two Electrophilic Warheads as a New Pharmacological Modality” (ACS Central Science, 2024).

As for `C=CC(=O)Nc1cc(C(=O)Nc2nc3cccc(C)c3n2[C@@H]2CCCCN(C(=O)C=C)C2)cs1` [ZNL-0056], the “concentration inhibiting phosphorylation of EGFR, ERK1/2, and AKT (as low as)” value was determined as 0.1 µM.
